According to patent publication US6350917B1, “α-crystal of cyclopentenone” (Takara Shuzo Co., Ltd., priority 1997, dated 2002):

Assay: Thermostability: quantitative determination of the cyclopentenone (UV absorbance near 215 nm) initially and after standing at 40° C. for six days
Format: physicochemical
Details: for Amount of the Cyclopentenone (%) After Standing at 40° C. for six days / Amount of the Cyclopentenone (%) At Initial Stage: ratio of the cyclopentenone in the sample; for Amount of the Cyclopentenone (%) At Initial Stage: the rest being water and impurities
Experimental: In order to compare the thermostability of the freeze-dried cyclopentenone obtained in Referential Example 1 and that of the α-type crystals obtained in Example 1, quantitative determination was conducted for the cyclopentenone on the initial stage and after allowing to stand at 40° C. for six days by means of the following quantitative determination method.
Quantitative Determination Method: A sample (0.1 g) of the cyclopentenone is dissolved in 100 ml of water and 2 ml of the resulting solution are diluted to an extent of 50-fold. Absorbance (A) of this solution at the wave length of maximum absorption near the wave length of 215 nm is measured. Amount of the cyclopentenone (mg/ml) is calculated by the following formula.
Amount of the Cyclopentenone (mg/ml)=(A÷773.4)×50000

| Structure (SMILES) | Amount of the Cyclopentenone (%) After Standing at 40° C. for six days | Amount of the Cyclopentenone (%) At Initial Stage | Thermostability compared with the freeze-dried product (40° C. for six days, in words) |
| --- | --- | --- | --- |
| O=C1C=C[C@@H](O)[C@@H]1O (relative stereo) [Freeze-Dried Product, trans-4,5-dihydroxy-2-cyclopenten-1-one, reference compound] | 28.2% | 59.4% |  |
| O=C1C=C[C@@H](O)[C@@H]1O (relative stereo) [α-Type Crystals, trans-4,5-dihydroxy-2-cyclopenten-1-one] | 95.2% | 96.4% | significantly improved thermostability as compared with the freeze-dried product |
